Results on 6 compounds are retold here after patent US7880007B2, “Bicyclic substituted phenyl piperidine modulators of muscarinic receptors” (Vertex Pharmaceuticals Incorporated, priority 2004, dated 2011).

Broadly, the Emax is the maximal effect, on the per cent scale that the assay sets.

Holding throughout (type): cell-based
One test addresses T1, M2 muscarinic receptor (Homo sapiens, UniProt P08172).
T1 construct: expressed in transfected cells; host or cells: CHO (M2-CHO)
T1 sequence (P08172 1-466): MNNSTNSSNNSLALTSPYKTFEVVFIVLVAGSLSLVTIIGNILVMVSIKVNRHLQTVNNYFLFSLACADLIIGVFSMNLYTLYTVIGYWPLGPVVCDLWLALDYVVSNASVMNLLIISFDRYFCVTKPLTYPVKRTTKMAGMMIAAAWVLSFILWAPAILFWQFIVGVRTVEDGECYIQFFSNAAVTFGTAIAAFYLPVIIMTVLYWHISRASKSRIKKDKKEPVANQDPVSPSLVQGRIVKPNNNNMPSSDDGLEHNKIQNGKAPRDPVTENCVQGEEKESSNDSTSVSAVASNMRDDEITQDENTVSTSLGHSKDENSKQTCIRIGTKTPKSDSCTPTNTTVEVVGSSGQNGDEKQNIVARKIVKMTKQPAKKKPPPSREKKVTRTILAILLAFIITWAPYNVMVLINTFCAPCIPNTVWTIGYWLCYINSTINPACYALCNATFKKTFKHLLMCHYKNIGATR
The test is described as follows: Functional mobilization of intracellular calcium (FLIPR), M2-CHO cells. Particulars: for Emax: 100% efficacy = maximum response obtained with the Carbachol control; for M2 Activity: M2-CHO cells, calcium mobilization (FLIPR). Put shortly: (§1)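 CHO cells expressing human M1–M4 receptors loaded with Fluo-3 AM or Calcium 3 dye (1 mM probenecid, pH 7.4); 0.5% DMSO final. Agonist mode: compound added directly; antagonist mode: 15 min pre-incubation or co-application, then carbachol at EC80. Fluorescence read 60 s on FLIPR; efficacy relative to carbachol maximum.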

The next test concerns the target T2, M3 muscarinic receptor (Homo sapiens, UniProt P20309).
T2 construct: expressed in transfected cells; host or cells: CHO (M3-CHO)
Kind of test: Functional mobilization of intracellular calcium (FLIPR), M3-CHO cells. To be noted: for Emax: 100% efficacy = maximum response obtained with the Carbachol control; for M3 Activity: M3-CHO cells, calcium mobilization (FLIPR). The method in brief: as §1

In the next test the target is T3, M4 muscarinic receptor (Homo sapiens, UniProt P08173).
T3 construct: expressed in transfected cells; host or cells: CHO (M4-CHO)
T3 sequence (P08173 1-479): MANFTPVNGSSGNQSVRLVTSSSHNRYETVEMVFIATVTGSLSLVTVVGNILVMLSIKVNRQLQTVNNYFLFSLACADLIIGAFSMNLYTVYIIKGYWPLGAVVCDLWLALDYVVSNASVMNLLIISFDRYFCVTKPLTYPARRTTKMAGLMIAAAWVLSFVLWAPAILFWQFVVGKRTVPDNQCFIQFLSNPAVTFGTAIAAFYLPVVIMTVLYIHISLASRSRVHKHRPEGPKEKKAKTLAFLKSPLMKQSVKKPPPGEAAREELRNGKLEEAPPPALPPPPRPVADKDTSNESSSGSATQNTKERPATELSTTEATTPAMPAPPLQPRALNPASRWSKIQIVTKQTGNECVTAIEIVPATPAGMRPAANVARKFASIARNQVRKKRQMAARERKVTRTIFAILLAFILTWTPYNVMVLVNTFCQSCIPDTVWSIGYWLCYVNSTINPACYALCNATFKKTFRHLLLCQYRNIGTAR
Kind of test: Functional mobilization of intracellular calcium (FLIPR), M4-CHO cells. Particulars: for Emax: 100% efficacy = maximum response obtained with the Carbachol control; for M4 Activity: M4-CHO cells, calcium mobilization (FLIPR). Put shortly: as §1
(A change in cytosolic calcium serves as a functional read-out for many receptors and channels.)

The next test concerns the target T4, M1 muscarinic receptor (Homo sapiens, UniProt P11229).
T4 construct: expressed in transfected cells; host or cells: CHO (M1-CHO)
T4 sequence (P11229 1-460): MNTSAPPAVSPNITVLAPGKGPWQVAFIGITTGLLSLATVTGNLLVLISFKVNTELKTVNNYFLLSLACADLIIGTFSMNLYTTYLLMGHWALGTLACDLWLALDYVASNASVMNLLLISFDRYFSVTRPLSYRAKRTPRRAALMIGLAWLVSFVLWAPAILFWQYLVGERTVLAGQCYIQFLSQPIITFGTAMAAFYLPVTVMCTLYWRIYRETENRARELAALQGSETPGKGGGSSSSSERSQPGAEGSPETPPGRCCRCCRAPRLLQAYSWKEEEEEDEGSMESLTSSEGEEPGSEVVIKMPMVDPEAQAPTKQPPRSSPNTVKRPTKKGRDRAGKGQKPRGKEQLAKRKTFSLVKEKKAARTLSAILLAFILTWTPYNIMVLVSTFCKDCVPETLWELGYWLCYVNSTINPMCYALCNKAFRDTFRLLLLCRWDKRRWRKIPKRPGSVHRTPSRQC
The test is described as follows: Functional mobilization of intracellular calcium (FLIPR), M1-CHO cells. Particulars: for Emax: 100% efficacy = maximum response obtained with the Carbachol control; for M1 Activity: M1-CHO cells, calcium mobilization (FLIPR). Put shortly: as §1

T2 sequence (P20309 whole entry): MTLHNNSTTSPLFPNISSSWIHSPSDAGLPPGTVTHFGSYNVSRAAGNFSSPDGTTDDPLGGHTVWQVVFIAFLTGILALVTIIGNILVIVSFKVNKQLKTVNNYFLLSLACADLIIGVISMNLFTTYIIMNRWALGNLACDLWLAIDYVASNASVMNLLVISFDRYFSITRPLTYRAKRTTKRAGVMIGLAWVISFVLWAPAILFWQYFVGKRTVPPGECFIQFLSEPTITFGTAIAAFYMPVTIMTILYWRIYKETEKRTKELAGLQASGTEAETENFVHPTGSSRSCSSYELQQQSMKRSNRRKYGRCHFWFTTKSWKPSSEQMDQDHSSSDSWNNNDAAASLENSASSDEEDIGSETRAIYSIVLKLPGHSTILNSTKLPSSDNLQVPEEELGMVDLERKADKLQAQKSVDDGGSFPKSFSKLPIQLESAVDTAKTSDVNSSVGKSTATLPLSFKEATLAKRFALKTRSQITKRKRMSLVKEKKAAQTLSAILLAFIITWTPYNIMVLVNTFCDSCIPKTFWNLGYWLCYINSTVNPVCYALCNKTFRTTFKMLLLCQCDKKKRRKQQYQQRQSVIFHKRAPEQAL

On to `COc1ccccc1C1CC2CCC(C1)N2C1CCCCC1` (centres unmarked) [Compound 132], for which, at M2 muscarinic receptor, the Emax is less than 25% and the “M2 Activity” value is listed as “+ (activity was measured to be greater than 5.0 μM)”. Also, on M3 muscarinic receptor, the Emax is less than 25% and the “M3 Activity” value was “+ (activity was measured to be greater than 5.0 μM)”. In addition, on M4 muscarinic receptor, the Emax was less than 25% and the “M4 Activity” value is reported as “++ (activity was measured to be from 1.0 μM to 5.0 μM)”. Moreover, at M1 muscarinic receptor, the Emax is less than 25% and the “M1 Activity” value was “++ (activity was measured to be from 1.0 μM to 5.0 μM)”.
With `Clc1cccc(C2CCN(C3CC4CCC(C4)C3)CC2)c1` (centres unmarked) [Compound 133], at M2 muscarinic receptor, the Emax was less than 25% and the “M2 Activity” value is listed as “+ (activity was measured to be greater than 5.0 μM)”. At M3 muscarinic receptor, the Emax was less than 25% and the “M3 Activity” value is on record as “+ (activity was measured to be greater than 5.0 μM)”. Moreover, on M4 muscarinic receptor, the maximum response (Emax) lay within 25 to 100% and the “M4 Activity” value was “+++ (activity was measured to be less than 1.0 μM)”. At M1 muscarinic receptor, the maximal response (Emax) was in the range of 25 to 100% and the “M1 Activity” value is “+ (activity was measured to be greater than 5.0 μM)”.
Consider `COc1ccc(F)cc1C1(F)CCN(C[C@H]2C[C@H]3C=C[C@H]2C3)CC1` [Compound 134], for which, on M2 muscarinic receptor, the Emax is 25 to 100% and the “M2 Activity” value was “++ (activity was measured to be from 1.0 μM to 5.0 μM)”. Further, on M3 muscarinic receptor, the maximum response (Emax) was less than 25% and the “M3 Activity” value is recorded as “+ (activity was measured to be greater than 5.0 μM)”. Also, at M4 muscarinic receptor, the maximal response (Emax) lay within 25 to 100% and the “M4 Activity” value is on record as “+++ (activity was measured to be less than 1.0 μM)”. At M1 muscarinic receptor, the maximal response (Emax) was in the range of 25 to 100% and the “M1 Activity” value was “++ (activity was measured to be from 1.0 μM to 5.0 μM)”.
Regarding `Cc1ccc(C)c(C2(O)CCN(C3CC4CCC3C4)CC2)c1` (centres unmarked) [Compound 135], at M2 muscarinic receptor, the Emax was less than 25% and the “M2 Activity” value is listed as “+ (activity was measured to be greater than 5.0 μM)”. At M3 muscarinic receptor, the “M3 Activity” value is reported as “+ (activity was measured to be greater than 5.0 μM)”. In addition, on M4 muscarinic receptor, the Emax is less than 25% and the “M4 Activity” value was “+ (activity was measured to be greater than 5.0 μM)”. At M1 muscarinic receptor, the maximal response (Emax) lay within 25 to 100% and the “M1 Activity” value is recorded as “+ (activity was measured to be greater than 5.0 μM)”.
Turning to `COc1ccccc1C1CCN(C2CC(C)(C)CC(C)(C)C2)CC1` [Compound 138], on M2 muscarinic receptor, the maximal effect (Emax) is less than 25% and the “M2 Activity” value is recorded as “+ (activity was measured to be greater than 5.0 μM)”. Further, on M3 muscarinic receptor, the Emax was less than 25% and the “M3 Activity” value is “+ (activity was measured to be greater than 5.0 μM)”. Moreover, at M4 muscarinic receptor, the maximal response (Emax) was less than 25% and the “M4 Activity” value is “+ (activity was measured to be greater than 5.0 μM)”. Further, on M1 muscarinic receptor, the maximum response (Emax) was less than 25% and the “M1 Activity” value is “+ (activity was measured to be greater than 5.0 μM)”.
With `COc1ccc(-c2ccccc2C2CCN([C@H]3C[C@H]4CC[C@H]3C4)CC2)c(OC)c1` [Compound 139], at M2 muscarinic receptor, the Emax is less than 25% and the “M2 Activity” value was “+ (activity was measured to be greater than 5.0 μM)”. On M3 muscarinic receptor, the maximal response (Emax) was less than 25% and the “M3 Activity” value was “+ (activity was measured to be greater than 5.0 μM)”. In addition, on M4 muscarinic receptor, the Emax lay in the range of 25 to 100% and the “M4 Activity” value is recorded as “++ (activity was measured to be from 1.0 μM to 5.0 μM)”. In addition, on M1 muscarinic receptor, the maximal effect (Emax) fell in the range of 25 to 100% and the “M1 Activity” value was “+ (activity was measured to be greater than 5.0 μM)”.
